Reference: patent US4963542A, “Cephalosporin derivatives” (Takeda Chemical Industries, Ltd., priority 1976, dated 1990)

Legend:
[1] = system: Proteus vulgaris IFO 3988; assay: Minimal inhibitory concentration, agar serial dilution; assay type: cell-based; details: TSA, inoculum 10^7 /ml
Source text: (§1) (a) Minimal inhibitory concentrations (Table 1 and 2)
(§2) Method: Agar serial dilution

[2] = system: Proteus rettgeri GN4733; assay: as above; assay type: cell-based; details: TSA, inoculum 10^7 /ml
Source text: as §1, §2

[3] = system: Proteus mirabilis GN4359; assay: as above; assay type: cell-based; details: TSA, inoculum 10^7 /ml
Source text: as §1, §2

[4] = system: Escherichia coli 0-111; assay: as above; assay type: cell-based; details: TSA, inoculum 10^7 /ml
Source text: as §1, §2

[5] = system: Klebsiella pneumoniae GN-3835; assay: as above; assay type: cell-based; details: TSA, inoculum 10^7 /ml
Source text: as §1, §2

[6] = system: Serratia marcescens TN24; assay: as above; assay type: cell-based; details: TSA, inoculum 10^7 /ml
Source text: as §1, §2

[7] = system: Enterobacter cloacae TN1282; assay: as above; assay type: cell-based; details: TSA, inoculum 10^7 /ml
Source text: as §1, §2

[8] = system: Proteus morganii IFO3168; assay: as above; assay type: cell-based; details: TSA, inoculum 10^7 /ml
Source text: as §1, §2

[9] = system: Serratia marcescens IFO 12648; assay: as above; assay type: cell-based; details: TSA, inoculum 10^7 /ml
Source text: as §1, §2

[10] = system: Staphylococcus aureus 1840; assay: as above; assay type: cell-based; details: TSA, inoculum 10^7 /ml
Source text: as §1, §2

[11] = system: Klebsiella pneumoniae DT; assay: as above; assay type: cell-based; details: TSA, inoculum 10^7 /ml
Source text: as §1, §2

[12] = system: Proteus vulgaris GN4413; assay: as above; assay type: cell-based; details: TSA, inoculum 10^7 /ml
Source text: as §1, §2

[13] = system: Escherichia coli NIHJ JC-2; assay: as above; assay type: cell-based; details: TSA, inoculum 10^7 /ml
Source text: as §1, §2

[14] = system: Citrobacter freundii GN1706; assay: as above; assay type: cell-based; details: TSA, inoculum 10^7 /ml
Source text: as §1, §2

[15] = system: Staphylococcus aureus 209P; assay: as above; assay type: cell-based; details: TSA, inoculum 10^7 /ml
Source text: as §1, §2

[16] = system: Proteus rettgeri TN338; assay: as above; assay type: cell-based; details: TSA, inoculum 10^7 /ml
Source text: as §1, §2

[17] = system: Citrobacter freundii GN99; assay: as above; assay type: cell-based; details: TSA, inoculum 10^7 /ml
Source text: as §1, §2

[18] = system: Escherichia coli T-7; assay: as above; assay type: cell-based; details: TSA, inoculum 10^7 /ml
Source text: as §1, §2

[19] = system: Escherichia coli 0-111; assay: Therapeutic effects on infected mice; assay type: in vivo, Male mouse, ICR/SLC; details: Escherichia coli, 0111, sc, 168 h, Table 4; s.c. single dose immediately after intraperitoneal infection; 7 days observation
Description: The therapeutic efficacies of several representative compounds [I] of this invention and of cephaloridine on infected mice are also set forth in the tables.
(b) Therapeutic effects on infected mice (Table 3 and Table 4)
Test animal: Male mouse, ICR/SLC
A group of five animals was employed per drug.
Route of infection: Intraperitoneal
Infectious bacteria: Escherichia coli 0-111
Period of observation: 7 days
Method of administration: Test compound (1 mg, 10 mg, 100 mg or 200 mg) was dissolved in sterile saline solution (100 ml) and 0.2 ml of the solution was administered subcutaneously as a single dose immediately after infection. Two fold dilutions of each solution were administered to five groups of 5 mice each.

Cc1nnc(SCC2=C(C(=O)O)N3C(=O)C(NC(=O)/C(=N\O)c4csc(=N)[nH]4)C3SC2)s1 (stereo not drawn) [Example 16, sodium 7-[2-(2-imino-4-thiazolin-4-yl)-2-hydroxyimino-acetamido]-3-(2-methyl-1,3,4-thiadiazol-5-yl)thiomethyl-3-cephem-4-carboxylate (syn-isomer)]
Minimal inhibitory concentration (MIC) [1]: 0.10
Minimal inhibitory concentration (MIC) [2]: 0.10
Minimal inhibitory concentration (MIC) [3]: 0.20
Minimal inhibitory concentration (MIC) [4]: 0.024
Minimal inhibitory concentration (MIC) [5]: 0.20
Minimal inhibitory concentration (MIC) [6]: 0.78
Minimal inhibitory concentration (MIC) [7]: 6.25
Minimal inhibitory concentration (MIC) [8]: 0.05
Minimal inhibitory concentration (MIC) [9]: 3.13
Minimal inhibitory concentration (MIC) [10]: 0.78
Minimal inhibitory concentration (MIC) [11]: 0.05
Minimal inhibitory concentration (MIC) [12]: 6.25
Minimal inhibitory concentration (MIC) [13]: 0.10
Minimal inhibitory concentration (MIC) [14]: 0.20
Minimal inhibitory concentration (MIC) [15]: 0.39
Minimal inhibitory concentration (MIC) [16]: ≤ 0.012
Minimal inhibitory concentration (MIC) [17]: 0.10
Minimal inhibitory concentration (MIC) [18]: 1.56
ED50 [19]: 0.035 mg/kg

Cc1nsc(SCC2=C(C(=O)O)N3C(=O)C(NC(=O)/C(=N\O)c4csc(=N)[nH]4)C3SC2)n1 (stereo not drawn) [Example 14, sodium 7-[2-(2-imino-4-thiazoline-4-yl)-2-hydroxyimino-acetamido]-3-(3-methyl-1,2,4-thiadiazol-5-yl)thiomethyl-3-cephem-4-carboxylate (syn-isomer)]
Minimal inhibitory concentration (MIC) [1]: 0.10
Minimal inhibitory concentration (MIC) [2]: 0.39
Minimal inhibitory concentration (MIC) [3]: 0.39
Minimal inhibitory concentration (MIC) [4]: 0.20
Minimal inhibitory concentration (MIC) [5]: 0.78
Minimal inhibitory concentration (MIC) [6]: 0.78
Minimal inhibitory concentration (MIC) [7]: 6.25
Minimal inhibitory concentration (MIC) [8]: 0.20
Minimal inhibitory concentration (MIC) [9]: 6.25
Minimal inhibitory concentration (MIC) [10]: 0.78
Minimal inhibitory concentration (MIC) [11]: 0.20
Minimal inhibitory concentration (MIC) [12]: 1.56
Minimal inhibitory concentration (MIC) [13]: 0.39
Minimal inhibitory concentration (MIC) [14]: 0.78
Minimal inhibitory concentration (MIC) [15]: 0.39
Minimal inhibitory concentration (MIC) [16]: 0.024
Minimal inhibitory concentration (MIC) [17]: 0.39

N=c1[nH]c(/C(=N/O)C(=O)NC2C(=O)N3C(C(=O)O)=C(COC(N)=O)CSC23)cs1 (stereo not drawn) [Example 26, sodium 7-[2-(2-imino-4-thiazolin-4-yl)-2-hydroxyimino-acetamido]-3-carbamoyloxymethyl-3-cephem-4-carboxylate (syn-isomer)]
Minimal inhibitory concentration (MIC) [1]: 0.10
Minimal inhibitory concentration (MIC) [2]: 0.024
Minimal inhibitory concentration (MIC) [3]: 0.05
Minimal inhibitory concentration (MIC) [4]: 0.024
Minimal inhibitory concentration (MIC) [5]: 0.05
Minimal inhibitory concentration (MIC) [6]: 1.56
Minimal inhibitory concentration (MIC) [7]: 12.5
Minimal inhibitory concentration (MIC) [8]: 0.39
Minimal inhibitory concentration (MIC) [9]: 12.5
Minimal inhibitory concentration (MIC) [10]: 0.78
Minimal inhibitory concentration (MIC) [11]: 0.024
Minimal inhibitory concentration (MIC) [12]: 50
Minimal inhibitory concentration (MIC) [13]: 0.05
Minimal inhibitory concentration (MIC) [14]: 0.10
Minimal inhibitory concentration (MIC) [15]: 0.78
Minimal inhibitory concentration (MIC) [16]: ≤ 0.012
Minimal inhibitory concentration (MIC) [17]: 0.05
Minimal inhibitory concentration (MIC) [18]: 0.39

N=c1[nH]c(/C(=N/O)C(=O)NC2C(=O)N3C(C(=O)O)=C(CSc4cnn[nH]4)CSC23)cs1 (stereo not drawn) [Example 13, sodium 7-[2-(2-imino-4-thiazolin-4-yl)-2-hydroxyimino-acetamido]-3-(1,2,3-triazol-5-yl)thiomethyl-3-cephem-4-carboxylate (syn-isomer)]
Minimal inhibitory concentration (MIC) [1]: 0.10
Minimal inhibitory concentration (MIC) [2]: 0.20
Minimal inhibitory concentration (MIC) [3]: 0.10
Minimal inhibitory concentration (MIC) [4]: 0.05
Minimal inhibitory concentration (MIC) [5]: 0.20
Minimal inhibitory concentration (MIC) [6]: 1.56
Minimal inhibitory concentration (MIC) [7]: 25
Minimal inhibitory concentration (MIC) [8]: 0.20
Minimal inhibitory concentration (MIC) [9]: 12.5
Minimal inhibitory concentration (MIC) [10]: 0.78
Minimal inhibitory concentration (MIC) [11]: 0.05
Minimal inhibitory concentration (MIC) [12]: 50
Minimal inhibitory concentration (MIC) [13]: 0.10
Minimal inhibitory concentration (MIC) [14]: 0.78
Minimal inhibitory concentration (MIC) [15]: 0.78
Minimal inhibitory concentration (MIC) [16]: ≤ 0.012
Minimal inhibitory concentration (MIC) [17]: 0.39
Minimal inhibitory concentration (MIC) [18]: 0.78

Cc1nnc(SCC2=C(C(=O)[O-])N3C(=O)C(NC(=O)Cn4cnnn4)[C@H]3SC2)s1.[Na+] (some centres unmarked) [Cefazolin, sodium 7-(1H-tetrazol-1-yl)acetamido-3-(2-methyl-1,3,4-thiadiazol-5-yl)thiomethyl-3-cephem-4-carboxylate, reference compound]
Minimal inhibitory concentration (MIC) [1]: 3.13
Minimal inhibitory concentration (MIC) [2]: 100
Minimal inhibitory concentration (MIC) [3]: 6.25
Minimal inhibitory concentration (MIC) [4]: 1.56
Minimal inhibitory concentration (MIC) [5]: 6.25
Minimal inhibitory concentration (MIC) [6]: > 100
Minimal inhibitory concentration (MIC) [8]: 100
Minimal inhibitory concentration (MIC) [9]: > 100
Minimal inhibitory concentration (MIC) [10]: 1.56
Minimal inhibitory concentration (MIC) [11]: 1.56
Minimal inhibitory concentration (MIC) [12]: > 100
Minimal inhibitory concentration (MIC) [13]: 1.56
Minimal inhibitory concentration (MIC) [14]: > 100
Minimal inhibitory concentration (MIC) [15]: 0.39
Minimal inhibitory concentration (MIC) [16]: ≤ 0.2
Minimal inhibitory concentration (MIC) [17]: 12.5
Minimal inhibitory concentration (MIC) [18]: 50

CC(=O)OCC1=C(C(=O)[O-])N2C(=O)C(NC(=O)Cc3cccs3)[C@H]2SC1.[Na+] (some centres unmarked) [Cephalothin, sodium 7-(2-thienylacetamido)-3-acetoxymethyl-3-cephem-4-carboxylate, reference compound]
Minimal inhibitory concentration (MIC) [1]: 1.56
Minimal inhibitory concentration (MIC) [2]: > 100
Minimal inhibitory concentration (MIC) [3]: 3.13
Minimal inhibitory concentration (MIC) [4]: 3.13
Minimal inhibitory concentration (MIC) [5]: 12.5
Minimal inhibitory concentration (MIC) [6]: > 100
Minimal inhibitory concentration (MIC) [7]: > 100
Minimal inhibitory concentration (MIC) [8]: > 100
Minimal inhibitory concentration (MIC) [9]: > 100
Minimal inhibitory concentration (MIC) [10]: 0.39
Minimal inhibitory concentration (MIC) [11]: 1.56
Minimal inhibitory concentration (MIC) [12]: > 100
Minimal inhibitory concentration (MIC) [13]: 12.5
Minimal inhibitory concentration (MIC) [14]: > 100
Minimal inhibitory concentration (MIC) [15]: 0.20
Minimal inhibitory concentration (MIC) [16]: 1.56
Minimal inhibitory concentration (MIC) [17]: 25
Minimal inhibitory concentration (MIC) [18]: 100

N=c1[nH]c(C(=NO)C(=O)NC2C(=O)N3C(C(=O)[O-])=C(C[n+]4ccc(C(N)=O)cc4)CSC23)cs1 (stereo not drawn) [Example 17, 7-[2-(2-imino-4-thiazolin-4-yl)-2-hydroxyimino-acetamido]-3-(4-carbamoylpyridiniummethyl)-3-cephem-4-carboxylate (syn-isomer)]
Minimal inhibitory concentration (MIC) [1]: 0.39
Minimal inhibitory concentration (MIC) [2]: 0.20
Minimal inhibitory concentration (MIC) [3]: 0.39
Minimal inhibitory concentration (MIC) [4]: 0.20
Minimal inhibitory concentration (MIC) [5]: 1.56
Minimal inhibitory concentration (MIC) [6]: 0.78
Minimal inhibitory concentration (MIC) [7]: 12.5
Minimal inhibitory concentration (MIC) [8]: 0.39
Minimal inhibitory concentration (MIC) [9]: 1.56
Minimal inhibitory concentration (MIC) [10]: 0.39
Minimal inhibitory concentration (MIC) [11]: 0.20
Minimal inhibitory concentration (MIC) [12]: 3.13
Minimal inhibitory concentration (MIC) [13]: 0.39
Minimal inhibitory concentration (MIC) [14]: 0.78
Minimal inhibitory concentration (MIC) [15]: 0.39
Minimal inhibitory concentration (MIC) [16]: 0.05
Minimal inhibitory concentration (MIC) [17]: 0.20
Minimal inhibitory concentration (MIC) [18]: 25
